Test results as given in paper PMC9963121, “Development of Combretastatin A-4 Analogues as Potential Anticancer Agents with Improved Aqueous Solubility” (Molecules, 2023).

How the values were obtained:
[1] = Compound stability in rat plasma, HPLC; assay type: in vitro ADME; conditions: 37 °C
Protocol: Blood was collected from SD rats (200–250 g, male and female, Animal Experimental Center of Yanbian University) into heparin tubes, and supernatant plasma was collected after centrifugation.
A certain amount of 9a and 12a1 were accurately weighed and mixed with rat plasma. After incubation at 37 ℃ for 0, 6, 12, 24 and 36 h, the plasma samples were treated with methanol and analyzed by HPLC to determine their stability in plasma.
A HITACHI Primaide HPLC liquid chromatography system was equipped and used for all analyses. Chromatographic separation was performed on a Welch Ultimate XB-C18 column (3.9 mm × 150 mm, 5 μm; Welch, China). The analytes were eluted using a gradient method with a flow rate of 1 mL/min. Mobile phase A was Ultra pure water, and mobile phase B was methanol according to the following gradient: (1) The gradient elution conditions of 9a: 0 to 8 min, 55% to 67% B; 8.1 to 15 min, 67% to 90% B; 15.1 to 25 min, 55% B. (2) The gradient elution conditions of 12a1: 0 to 9 min, 55% to 65% B; 9.1 to 12 min, 65% to 75% B; 12.1 to 15 min, 75% to 85% B; 15.1 to 20 min, 90% B; 20.1 to 30 min, 55% B. The injection volume was 3 μL. The column temperature was set at 40 °C. […]
1.6. Plasma stability assessment
Prepare plasma:blood was collected from SD rats (200-250g, male and female, Animal Experimental Center of Yanbian University) into heparin tubes, and supernatant plasma was collected after centrifugation.
A certain amount of 9a and 12a1 were accurately weighed and mixed with rat plasma.
After incubation at 37℃ for 0 h, 6 h, 12 h, 24 h and 36 h, the plasma samples were treated with methanol and analyzed by HPLC to determine their stability in plasma.
Analytical instrument and conditions:
A HITACHI Primaide HPLC liquid chromatography system equipped was used for all analyses. Chromatographic separation was performed on a Welch Ultimate XB-C18 column (3.9 mm × 150 mm, 5 μm; Welch, China). The analytes were eluted using a gradient method with a flow rate of 1 mL/min. Mobile phase A was Ultra pure water, and mobile phase B was methanol according to the following gradient: (1). The gradient elution conditions of 9a: 0 to 8 minutes, 55% to 67% B; 8.1 to 15 minutes, 67% to 90% B; 15.1 to 25 minutes, 55% B. (2). The gradient elution conditions of […]

[2] = Aqueous solubility in 0.01 M PBS, high throughput UV method; assay type: physicochemical; conditions: for Water solubility (in words): Figure 1; for solubility thermodynamic at 1.5 h: aqueous phosphate buffer, aqueous buffer, sodium phosphate buffer 0.01 M, pH 7.4, 22 ± 2 °C, mean ± SD
Source text: (§1) Initially, we designed and synthesised seven compounds—9a and 12a1–12a6—and evaluated the anticancer activity and aqueous solubility. We evaluated the cytotoxic effects of these stilbene nitrile analogues against a panel of four human cancer cell lines (HCT-116, BEL-7402, MCF-7 and AGS) and two human non-cancerous normal cell lines (L-02 and MCF-10A), using CA-4 as a control. The compounds were screened for aqueous solubility in 0.01 M PBS using a high throughput UV method. […] It is possible that the size of the nitrogen heterocycle had little effect on the activity of these compounds. […] The aqueous solubility of all the compounds 12a1–12a6 was higher than that of 9a, particularly that of 12a1 and 12a2 containing piperazine rings. […] Of the six compounds with improved aqueous solubility, 12a1 had the best activity.
The aqueous solubility was determined as a previously reported procedure. Put simply, a certain amount of powdered compound was placed in a 2 mL centrifuge tube and mixed with an appropriate volume of aqueous phosphate buffer (10 mM, pH 7.4) to make the whole system supersaturated. The mixtures were sonicated (KQ5200DE numerical control ultrasonic cleaner, Kunshan Ultrasonic Instrument Co., Ltd., SuZhou, China) for 20 min. After sonication, the mixture was allowed to equilibrate at RT (22 ± 2 °C) for 1.5 h with vortex shaking (1200 rpm). Then centrifuged at 3000 rpm for 15 min (1-14k, sigma, Darmstadt, Germany), the supernatant was filtered with a 0.22 µM filter membrane. And then, take 150 µL of filtrate and add it to 96-well UV plate with triplicate. Draw 150 μL of blank solution was added into plate as blank control. The 96-well UV plate prepared above was read on a Synergy HTX Multifunctional Microplate Reader (BioTek, Vermont, USA) at 294 nm. The absorbance of the sample was corrected according to the UV response of the sample and blank solution, and the corrected UV response values were used for solubility calculations by bringing into the standard curve of the compound. […]
1.5. Solubility Assessment
The aqueous solubility was determined as previously reported using the high throughput solubility screens procedure published by Bruno Bard et al [9. 10]. Put simply, a certain amount of powdered compound was placed in a 2 ml centrifuge tube and mixed with an appropriate volume of aqueous phosphate buffer (0.01 M, pH 7.4) to make the whole system supersaturated. The mixtures were sonicated (KQ5200DE numerical control ultrasonic cleaner, Kunshan Ultrasonic Instrument Co., Ltd., China) for 20 min. After sonication, the mixture was allowed to equilibrate at room temperature (22 ± 2°C) for 1.5 h with vortex shaking (1200 rpm). Then the centrifuge tube was put into the centrifuge (1-14k, sigma, Germany), centrifuged with 3000 rpm for 15 minutes, 0.22 µM filter membrane filtration supernatant, then take 150 µl filtrate and add it to 96-well UV plate, with three well for each compound. Draw 150 μL blank solution were added into 96 well-plate as blank control. The 96-well UV […]
plate prepared above was read on a SynergyHTX Multifunctional microplate reader (BioTek, USA) at 338 nm (compounds 12a-12d and 15-20) or 370 nm (compounds 9a-d). The absorbance of the sample was corrected according to the UV response of the sample and blank solution, and the corrected UV responses value were used for solubility calculations by bring into the standard curve of the compound. […]

AGS gastric cancer cell = experiment: MTT cell growth inhibition assay, AGS gastric cancer cells; assay type: cell-based; conditions: Homo sapiens, mean ± SD of three experiments
Source text: as §1
(§2) All human cell lines were used in this study. AGS gastric cancer cell, BEL-7402 liver cancer cell, HCT-116 colorectal cancer cell, L-02 normal liver cell, MCF-7 breast cancer cell, and MCF-10A normal breast cell were initially purchased from American Type Culture Collection (ATCC, Manassas, VA, USA). RPMI-1640 media, DMEM and FBS, were provided by Gibco Company. The cells were maintained in DMEM or RPMI-1640, supplemented with 10% FBS, 100 IU/mL penicillin and […] streptomycin, and at 37 °C in a humidified atmosphere containing 5% CO2.
(§3) The experiment was carried out according to the method of reference.

[3] = tested on: HCT-116 colorectal cancer cell; experiment: MTT cell growth inhibition assay, HCT-116 colorectal cancer cells; assay type: cell-based, human; conditions: for IC50: Homo sapiens, HCT-116, MTT, mean ± SD of three experiments
Source text: as §1, §2, §3

MCF-7 breast cancer cell = experiment: MTT cell growth inhibition assay, MCF-7 breast cancer cells; assay type: cell-based; conditions: Homo sapiens, MCF7, mean ± SD of three experiments
Source text: as §1, §2, §3

[4] = tested on: MCF-10A normal breast cell; experiment: MTT cell growth inhibition assay, MCF-10A normal breast cells; assay type: cell-based; conditions: Homo sapiens, mean ± SD of three experiments, read-out: IC50 MCF-10A Normal Breast Epithelial Cells
Source text: as §1, §2, §3

L-02 normal liver cell = experiment: MTT cell growth inhibition assay, L-02 normal liver cells; assay type: cell-based; conditions: Homo sapiens, mean ± SD of three experiments
Source text: as §1, §2, §3

[5] = tested on: BEL-7402 liver cancer cell; experiment: MTT cell growth inhibition assay, BEL-7402 liver cancer cells; assay type: cell-based; conditions: Homo sapiens, mean ± SD of three experiments, read-out: IC50 BEL-7402 Hepatoma Cells
Source text: as §1, §2, §3

[6] = set-up: method as in earlier work; conditions: cited from earlier work
[7] = set-up: method as in PMID 12067983, PMID 12807934, PMID 14645433; conditions: clinical data, intravenous CA-4P; cited from earlier work
[8] = Configuration (cis/trans) stability; conditions: Figure 1; cis/trans olefin configuration
Source text: This vascular disrupting activity causes the tumor tissue vascular collapse, cutting down the oxygen and nutrient supply to tumor cells, leading to tumor cell death.
(compound 2, Figure 1). Still, the methyl group is difficult to modify chemically. […] Lipinski proposed the theory of the “Rule of 5” in 1997 [19], which is used to evaluate the pharmacokinetic characteristics of small molecule drugs.

## COc1cc(/C(C#N)=C/c2ccc(N)cc2)cc(OC)c1OC [9a, (Z)-3-(4-aminophenyl)-2-(3,4,5-trimethoxyphenyl)acrylonitrile]
[1]; within 36 h, UV 294 nm
  Decrease of HPLC peak area in rat plasma: approximately 33%
[1]; rat plasma, 24 h
  Plasma stability (in words): retained plasma stability over 24 h
[2]
  Water solubility (in words): Poor water solubility
  solubility thermodynamic at 1.5 h: 10.8 ± 0.7 µg/mL
[2]; ratio to CA-4
  Aqueous solubility relative to CA-4: five times lower
[2]; ratio to compound 2
  Improvement in aqueous solubility over compound 2: two-fold
AGS gastric cancer cell
  IC50: 120 ± 10 nM
[3]
  IC50: 20 ± 10 nM
[3]; ratio of IC50 values L-02 / HCT-116
  Selectivity for HCT-116 cancer cells over L-02 normal cells: 1000 times
[3]; ratio to CA-4
  Activity against HCT-116 relative to CA-4: eight times higher
MCF-7 breast cancer cell
  IC50: 4820 ± 1570 nM
[4]
  IC50: > 100000 nM
L-02 normal liver cell
  IC50: 20700 ± 3390 nM
[5]
  IC50: 140 ± 10 nM

## COc1ccc(/C=C\c2cc(OC)c(OC)c(OC)c2)cc1O [CA-4, Combretastatin A-4]
[6]
  Rat Plasma Protein Binding Rate: 72.3 ± 6.9%
[2]
  Water solubility (in words): Poor water solubility
  solubility thermodynamic at 1.5 h: 57.7 µg/mL
AGS gastric cancer cell
  IC50: 3420 ± 30 nM
[3]
  IC50: 160 nM
MCF-7 breast cancer cell
  IC50: 220 ± 90 nM
L-02 normal liver cell
  IC50: 1100 ± 30 nM

## COc1ccc(/C=C\c2cc(OC)c(OC)c(OC)c2)cc1OP(=O)([O-])[O-].[Na+].[Na+] [CA-4P, reference compound]
[7]
  half-life: about 30 min
[2]
  Water solubility (in words): Good water solubility
[8]
  Configuration stability (in words): Configuration instability
[3]
  IC50: 590 ± 220 nM
